# Laboratory results from PubChem BioAssay (NCI).
# Values joined by “and” are separate entries in the source; they are usually repeats but may differ in a detail not shown here. Identical values can stand only once.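 Following 48 hours of exposure in 96-well plates, responses at five concentrations were used to interpolate endpoints linearly. Abbreviation: GI50, concentration required for 50% inhibition of growth. The concentration for full growth arrest is given as TGI.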
# Columns and labels:
# Test in all cases: NCI-60 cell line screen, 48 h
# [1] = tested on: SK-MEL-28 melanoma
# [2] = tested on: EKVX NSCLC
# [3] = tested on: HOP-92 NSCLC
# [4] = tested on: SR leukemia
# [5] = tested on: SK-MEL-5 melanoma
# [6] = tested on: RXF 393 renal
# [7] = tested on: TK-10 renal
# [8] = tested on: SK-MEL-2 melanoma
# [9] = tested on: LOX IMVI melanoma
# [10] = tested on: CCRF-CEM leukemia
Compound,TGI [1],TGI [2],TGI [3],TGI [4],TGI [5],TGI [6],TGI [7],TGI [8],TGI [9],GI50 [1],GI50 [2],GI50 [3],GI50 [4],GI50 [5],GI50 [10],TGI [10],GI50 [6],GI50 [7],GI50 [9],GI50 [8]
COc1ccc(NCc2c(O)ccc3ccccc23)cc1,78.3 µM,> 100 µM,29.6 µM,39.5 µM,49.1 µM,35 µM,38.6 µM,> 100 µM,29.4 µM,,,,,,,,,,,
COc1ccc(Cn2cc3c(c2-c2ccccc2)CCc2cncnc2-3)cc1,21.6 µM,29.3 µM,28.5 µM,6.7 µM,14.2 µM,9.82 µM,26.6 µM,,19.9 µM,8.71 µM,4.5 µM,10.8 µM,1.46 µM,3.72 µM,3.99 µM,18.3 µM,3.56 µM,8.09 µM,6.81 µM,
CN(C)CCC(=O)NCc1c2nc3ccccc3nc2n2ccccc12,> 100 µM,> 100 µM,> 100 µM,41.8 µM,52.8 µM,> 100 µM,47.6 µM,> 100 µM,40.4 µM,83.9 µM,43.1 µM,34.6 µM,16.9 µM,16.8 µM,25.7 µM,78.8 µM,54.8 µM,16 µM,21 µM,48.1 µM
CC(=O)OC1C/C(C)=C/[C@H](O)CC(C)/C=C/[C@@]2(C)CCC(C(C)(C)O)C12 (stereo partly specified),> 100 µM,> 100 µM,> 100 µM,> 100 µM,> 100 µM,> 100 µM,> 100 µM,> 100 µM,> 100 µM,,,,,,,> 100 µM,,,,
Cc1ccc(C(=O)Nc2ccccc2C(=O)N/N=C(\c2ccccc2)c2ccccn2)cc1,> 100 µM,> 100 µM,> 100 µM,> 100 µM,1.15 µM,> 100 µM,> 100 µM,> 100 µM,> 100 µM,0.597 µM,0.207 µM,6.27 µM,0.208 µM,0.271 µM,0.167 µM,> 100 µM,1.53 µM,3.58 µM,0.302 µM,
COc1ccc(-c2cc3nccn3c(Nc3ncccc3C(N)=O)n2)cc1OC,> 100 µM,,,21.4 µM,> 100 µM,18.4 µM,> 29.8 µM,> 100 µM,> 100 µM,> 100 µM,,,0.275 µM,4.87 µM,0.827 µM,> 100 µM,0.613 µM,0.391 µM,0.807 µM,0.824 µM
C=C(CN(CCN1CCOCC1)CC(=C)c1ccc(C(=O)Nc2ccccc2N)cc1)c1ccc(C(=O)Nc2ccccc2N)cc1,16.2 µM,> 50 µM,33.8 µM,> 50 µM,16.7 µM,23.6 µM,12 µM,> 50 µM,6.47 µM,6.86 µM,14 µM,8.35 µM,11.7 µM,8.38 µM,,,11.9 µM,4.44 µM,1.07 µM,11.1 µM
CCOC(=O)c1cn2ncnc(Oc3ccc(NC(=O)NCCN(CC)CC)c(Cl)c3)c2c1C,3.15 µM,21.5 µM,6.19 µM,5.15 µM,3.3 µM,3.37 µM,11.1 µM,5.38 µM,3.55 µM,1.69 µM,3.79 µM,1.76 µM,1.96 µM,1.81 µM,2.33 µM,6.73 µM,1.63 µM,2.91 µM,1.85 µM,2.36 µM
COc1cccc2cc(N(C)c3nc(C)nc4ccsc34)ccc12,20 µM,21.1 µM,2.19 µM,26.8 µM,< 0.01 µM,16.4 µM,24.1 µM,17.3 µM,13.6 µM,1.53 µM,< 0.01 µM,< 0.01 µM,< 0.01 µM,< 0.01 µM,< 0.01 µM,> 100 µM,< 0.01 µM,1.87 µM,< 0.01 µM,0.123 µM
CCCCCCCCCCC(CN(CC)CC)C(O)c1ccccc1 (stereo unspecified),3.16 µM,3.74 µM,2.98 µM,6.23 µM,2.88 µM,3.05 µM,3.22 µM,5.45 µM,3.19 µM,1.7 µM,1.56 µM,1.27 µM,2.44 µM,1.48 µM,1.82 µM,4.89 µM,1.5 µM,1.65 µM,1.75 µM,2.31 µM
O=C(O)CCc1nc(-c2ccccc2)c(-c2ccccc2)o1,> 100 µM,> 100 µM,> 100 µM,> 100 µM,> 100 µM,> 100 µM,> 100 µM,> 100 µM,> 100 µM,,,,,,,> 100 µM,,,,
CCCCc1oc2ccccc2c1C(=O)c1cc(I)c(OCCN(CC)CC)c(I)c1,4 µM and 10.1 µM,14.8 µM and 47.1 µM,2.46 µM and 10.3 µM,4.24 µM,2.76 µM,2.97 µM and 8.79 µM,17.8 µM,,2.82 µM and 7.86 µM,1.91 µM,2.86 µM,0.625 µM,1.68 µM,,1.82 µM,4.35 µM and 12 µM,1.26 µM,5.12 µM,1.49 µM,
c1ccc([P+](CCC[P+](c2ccccc2)(c2ccccc2)c2ccccc2)(c2ccccc2)c2ccccc2)cc1,> 100 µM,> 100 µM,82.2 µM,> 100 µM,74.1 µM and 38.7 µM,> 100 µM,> 100 µM,40 µM,> 100 µM,11.2 µM,,,4.82 µM,6.8 µM,7.26 µM,> 100 µM,,,,8.44 µM
Oc1oc(-c2ccccc2)nc1/C=C1/C=NN=N1,> 100 µM,> 100 µM,> 100 µM,> 100 µM,,> 100 µM,> 100 µM,> 100 µM,> 100 µM,,,,,,,> 100 µM,,,,
